Assay results published in US20140148498A1, “METHODS AND COMPOSITIONS FOR THE TREATMENT OF MARFAN SYNDROME AND ASSOCIATED DISORDERS” (THE JOHNS HOPKINS UNIVERSITY, priority 2011, published 2014).
“Also recorded” adds a separate entry of the source.

Key:
Smad2 = test: Western blot of aortic root and proximal ascending aorta: Smad2 activation (Examples 4-5); format: in vivo, mice
From the text: All mice were cared for under strict compliance with the Animal Care and Use Committee of the Johns Hopkins University School of Medicine. The Fbn1^C1039G/+ and AT2KO lines were maintained n a pure C57BL/6 background (backcrossed for greater than 9 generations), allowing for valid comparisons. In order to further accommodate the potential for temporal- or background-specified variation, all comparisons were made between contemporary littermates when possible. The AT21C0 mice were obtained as a generous gift from Dr. Inagami (T. Ichiki et al., Nature 377, 748 (1995)). The Agtr2 gene resides on the X chromosome and therefore we used either male mice carrying the mutated allele (who are hemizygous) or homozygous females, both of which have been previously shown to be functionally null for the AT2 receptor (T. Ichiki et al., Nature 377, 748 (1995)). Mice were sacrificed with an inhalation overdose of halothane (Sigma-Aldrich, St. Louis). Mice underwent immediate laparotomy, descending abdominal aortic transection, and PBS (pH 7.4) was infused through the right and left ventricles to flush out the blood. Mice that were analyzed for Western Blot analysis had their proximal ascending aortas (root to right brachiocephalic trunk) immediately dissected out, flash frozen in liquid nitrogen and stored at −80d until further processing. Mice that were analyzed for aortic histology had latex injected under low pressure into the left ventricular apex until it was visible in the descending abdominal aorta. Mice that were analyzed for lung histology had their trachea intubated with a 20-gauge blunted needle, and 0.5% agar was infused under a low and constant pressure to gradually inflate the lungs. The trachea was then tied-off using vicryl and the needle was removed. Mice were fixed for 24 hours in 10% buffered formalin, after which the heart, aorta and lungs were removed and stored in 70% ethanol.
Mouse aortic root and ascending aortas (aortic root excluding the aortic valve to origin of right brachiocephalic trunk) were harvested, snap-frozen in liquid nitrogen and stored at −80° C. until processed. Protein was extracted using the reagents and protocol from a Total Protein Extraction Kit containing protease inhibitor and Protein Phosphatase Inhibitor Cocktail (Millipore, MA). Aortas were homogenized using a pellet pestle motor (Kimble-Kontes, NJ) as per the extraction kit protocol. […] Equal protein loading of samples was determined by a protein assay (BioRad, CA), and confirmed by probing with antibodies against β-Actin or GAPDH (Sigma, Mo.). […] Blots were then washed in PBS-T, developed using SuperSignalWest HRP substrate (Pierce Scientific, IL), exposed to BioMax Scientific Imaging Film (Sigma, Mo.) and quantified using Imaged analysis software (NIH, MD).

ERK1/2 = test: Western blot of proximal ascending aorta: ERK1/2 activation (Examples 6-8); format: in vivo, mice; settings: Fbn1^C1039G/+ mice, compared with placebo-treated littermates, FIG. 16B
From the text: All mice were cared for under strict compliance with the Animal Care and Use Committee of the Johns Hopkins University School of Medicine. The Smad4 haploinsufficient mice were a generous gift from Dr. Chuxia Deng (NIH/NIDDK, Bethesda). The Fbn1^C1039G/+ line was maintained on a C57BL/6 background, allowing for valid comparisons. In order to further accommodate the potential for temporal- or background-specific variation in genetic or pharmacological manipulation experiments, all comparisons were made between contemporary littermates. Mice were checked daily for death and all mice found dead were immediately necropsied to assess for evidence of aortic dissection. Mice were killed with an inhalation overdose of halothane (Sigma-Aldrich, St. Louis). Mice underwent immediate laparotomy, descending abdominal aortic transection, and PBS (pH 7.4) infusion through the left ventricle to flush out the blood. For Western blot analysis, the proximal ascending aorta (root to right brachiocephalic trunk) was removed, flash frozen in liquid nitrogen and stored at −80° C. Following PBS infusion, mice analyzed for aortic histology had latex injected under low pressure into the left ventricular apex until it was visible in the descending abdominal aorta. The mice were then fixed for 24 hours in 10% buffered formalin, after which the heart and aorta were removed and stored in 70% ethanol.
Mouse monoclonal TGFβNAb (1d11; R&D Systems, Minneapolis) was reconstituted in PBS and administered via intraperitoneal injection 3 times a week at a dose of 5 mg/kg. Treatment was initiated at 1 month of age and continued for 2 months. IgG (Zymed Laboratories Inc, San Francisco) was reconstituted in PBS, and administered at a dose of 10 mg/kg as a control. […]
Protein was extracted using the reagents and protocol from a Total Protein Extraction Kit, in conjunction with a Protein Phosphatase Inhibitor Cocktail (Millipore, MA). […] Equal protein loading of samples was determined by a protein assay (BioRad, CA) and confirmed by probing with antibodies against β-Actin or GAPDH (Sigma, Mo.). […]

Question: How did the Smad2 activation (Smad2; Fbn1^C1039G/+ mice, FIG. 10B) turn out when CCCCc1nc(Cl)c(CO)n1Cc1ccc(-c2ccccc2-c2nn[nH]n2)cc1 [losartan] was run?
Answer: significantly decreased Smad2 activation

Question: What about the Smad2 activation (Smad2; treated AT2KO:Fbn1^C1039G/+ versus treated Fbn1^C1039G/+ mice, FIG. 14) of the same compound?
Answer: no significant change; also recorded: no significant difference

Question: What about the ERK1/2 activation (ERK1/2) of the same compound?
Answer: significant reduction in ERK1/2 activation
